Test results as given in ChEMBL document CHEMBL4800728, “Data for DCP probe JNJ-54119936” (2021).

Legend:
[1] = target: Aurora kinase B (Homo sapiens) (UniProt Q96GD4); assay: Aurora_B Invitrogen kinase panel; settings: Compound concentration 10.0 uM
[2] = target: Ephrin type-A receptor 2 (Homo sapiens) (UniProt P29317); assay: EphA2 Invitrogen kinase panel; settings: Compound concentration 10.0 uM
[3] = target: Inhibitor of nuclear factor kappa-B kinase subunit beta (Homo sapiens) (UniProt O14920); assay: IKKbeta Invitrogen kinase panel; settings: Compound concentration 10.0 uM
[4] = target: Insulin receptor (Homo sapiens) (UniProt P06213); assay: INSR Invitrogen kinase panel; settings: Compound concentration 10.0 uM
Insulin receptor (Homo sapiens), sequence (P06213 28-758 limits assumed): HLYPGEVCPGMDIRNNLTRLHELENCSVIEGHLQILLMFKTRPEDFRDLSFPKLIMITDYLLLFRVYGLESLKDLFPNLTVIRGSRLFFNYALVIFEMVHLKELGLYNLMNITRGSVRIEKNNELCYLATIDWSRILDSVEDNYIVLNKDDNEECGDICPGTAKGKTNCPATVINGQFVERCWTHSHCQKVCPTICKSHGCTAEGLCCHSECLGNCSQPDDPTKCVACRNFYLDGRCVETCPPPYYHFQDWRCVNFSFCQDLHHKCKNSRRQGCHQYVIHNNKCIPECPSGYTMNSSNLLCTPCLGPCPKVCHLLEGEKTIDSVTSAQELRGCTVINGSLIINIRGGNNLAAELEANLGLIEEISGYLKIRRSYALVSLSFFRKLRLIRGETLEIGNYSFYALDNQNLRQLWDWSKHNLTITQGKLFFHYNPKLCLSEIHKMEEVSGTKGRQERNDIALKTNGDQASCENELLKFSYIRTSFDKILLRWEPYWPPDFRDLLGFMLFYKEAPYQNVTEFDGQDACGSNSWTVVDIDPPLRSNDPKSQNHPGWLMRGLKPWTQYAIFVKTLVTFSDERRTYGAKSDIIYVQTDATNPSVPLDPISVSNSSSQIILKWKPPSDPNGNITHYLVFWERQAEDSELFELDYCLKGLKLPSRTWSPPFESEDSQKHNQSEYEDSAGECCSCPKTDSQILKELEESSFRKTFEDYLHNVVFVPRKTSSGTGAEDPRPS
Insulin receptor (Homo sapiens), sequence (P06213 763-1382 limits assumed): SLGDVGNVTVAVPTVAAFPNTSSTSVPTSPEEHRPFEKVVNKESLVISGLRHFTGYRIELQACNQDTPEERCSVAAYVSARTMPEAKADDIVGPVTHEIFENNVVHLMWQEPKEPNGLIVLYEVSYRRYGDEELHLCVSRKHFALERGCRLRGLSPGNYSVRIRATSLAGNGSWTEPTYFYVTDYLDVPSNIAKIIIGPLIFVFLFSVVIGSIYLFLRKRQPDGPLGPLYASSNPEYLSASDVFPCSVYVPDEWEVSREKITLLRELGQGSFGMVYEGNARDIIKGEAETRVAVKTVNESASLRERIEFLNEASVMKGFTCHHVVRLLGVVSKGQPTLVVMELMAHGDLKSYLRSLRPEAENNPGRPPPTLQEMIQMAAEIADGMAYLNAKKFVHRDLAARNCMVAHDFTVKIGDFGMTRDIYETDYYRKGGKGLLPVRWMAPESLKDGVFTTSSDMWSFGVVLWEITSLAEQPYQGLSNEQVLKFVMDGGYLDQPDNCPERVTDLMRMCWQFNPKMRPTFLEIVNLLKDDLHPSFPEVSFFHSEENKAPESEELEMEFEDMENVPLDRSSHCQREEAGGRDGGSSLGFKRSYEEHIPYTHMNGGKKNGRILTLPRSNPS

[5] = target: Mitogen-activated protein kinase 1 (Homo sapiens) (UniProt P28482); assay: ERK2 Invitrogen kinase panel; settings: Compound concentration 10.0 uM
[6] = target: Serine/threonine-protein kinase Nek2 (Homo sapiens) (UniProt P51955); assay: NEK2 Invitrogen kinase panel; settings: Compound concentration 10.0 uM
Serine/threonine-protein kinase Nek2 (Homo sapiens), sequence (P51955 whole entry): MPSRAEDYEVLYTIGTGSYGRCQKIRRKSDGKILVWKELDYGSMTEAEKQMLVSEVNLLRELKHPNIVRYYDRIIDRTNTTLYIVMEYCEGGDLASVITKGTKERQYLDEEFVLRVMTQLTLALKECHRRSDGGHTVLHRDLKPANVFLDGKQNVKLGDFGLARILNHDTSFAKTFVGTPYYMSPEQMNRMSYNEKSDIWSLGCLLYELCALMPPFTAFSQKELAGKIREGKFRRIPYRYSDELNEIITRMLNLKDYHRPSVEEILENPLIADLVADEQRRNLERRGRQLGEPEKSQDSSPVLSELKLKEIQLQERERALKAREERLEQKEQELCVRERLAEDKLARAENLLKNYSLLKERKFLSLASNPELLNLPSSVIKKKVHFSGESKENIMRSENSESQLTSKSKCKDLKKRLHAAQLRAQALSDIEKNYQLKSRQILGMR

[7] = target: T1, CAR (nuclear receptor subfamily 1 group I member 3) (Homo sapiens, UniProt Q14994); assay: CAR In-house nuclear receptor screen; settings: human; compound concentration 3 uM
T1 sequence (Q14994 whole entry): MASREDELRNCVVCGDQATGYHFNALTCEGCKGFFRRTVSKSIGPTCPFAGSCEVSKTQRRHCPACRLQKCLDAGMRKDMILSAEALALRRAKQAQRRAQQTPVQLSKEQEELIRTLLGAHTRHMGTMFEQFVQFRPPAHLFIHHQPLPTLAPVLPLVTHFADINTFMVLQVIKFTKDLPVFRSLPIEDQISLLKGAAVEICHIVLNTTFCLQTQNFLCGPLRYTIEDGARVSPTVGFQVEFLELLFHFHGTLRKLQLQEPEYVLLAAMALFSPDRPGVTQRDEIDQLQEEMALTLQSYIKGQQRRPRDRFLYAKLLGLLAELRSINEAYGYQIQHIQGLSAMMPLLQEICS

[8] = target: T2, Glucocorticoid receptor (Homo sapiens) (UniProt P04150); assay: (§1) GR In-house nuclear receptor screen; settings: Compound concentration 3.0 uM
T2 sequence (whole entry): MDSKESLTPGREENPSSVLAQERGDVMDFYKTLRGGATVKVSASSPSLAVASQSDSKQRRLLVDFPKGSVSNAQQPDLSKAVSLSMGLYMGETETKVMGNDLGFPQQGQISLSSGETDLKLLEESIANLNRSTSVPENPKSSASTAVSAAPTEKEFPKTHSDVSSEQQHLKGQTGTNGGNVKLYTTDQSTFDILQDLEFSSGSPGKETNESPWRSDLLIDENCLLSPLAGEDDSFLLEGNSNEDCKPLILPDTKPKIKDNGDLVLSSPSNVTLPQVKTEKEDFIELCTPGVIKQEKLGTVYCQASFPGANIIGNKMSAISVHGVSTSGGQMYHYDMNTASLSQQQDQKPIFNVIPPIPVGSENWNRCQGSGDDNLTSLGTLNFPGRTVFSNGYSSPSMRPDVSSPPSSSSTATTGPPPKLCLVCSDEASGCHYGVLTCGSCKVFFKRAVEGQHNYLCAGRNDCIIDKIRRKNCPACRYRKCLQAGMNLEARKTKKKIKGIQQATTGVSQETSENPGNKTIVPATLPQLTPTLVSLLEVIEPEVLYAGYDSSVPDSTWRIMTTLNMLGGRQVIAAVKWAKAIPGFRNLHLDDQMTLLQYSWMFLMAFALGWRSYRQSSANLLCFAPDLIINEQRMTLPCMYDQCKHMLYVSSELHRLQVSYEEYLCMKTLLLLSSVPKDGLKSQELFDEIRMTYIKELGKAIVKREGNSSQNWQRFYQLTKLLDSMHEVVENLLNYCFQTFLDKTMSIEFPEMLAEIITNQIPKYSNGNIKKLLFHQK

[9] = target: Glucocorticoid receptor (Homo sapiens, UniProt P04150); assay: as §1
[10] = target: GABA-A receptor; anion channel (Homo sapiens) (UniProt P14867+P47870+P18507+P28472+P48169+Q99928+Q9UN88+P34903+O00591+O14764+Q8N1C3+P18505+P78334+P47869+P31644+Q16445); assay: GABA (non selective) CEREP screen; type: protein-complex assay; settings: Compound concentration 1.0 uM
[11] = target: C-X-C chemokine receptor type 2 (Homo sapiens) (UniProt P25025); assay: CXCR2 (h) CEREP screen; settings: Compound concentration 1.0 uM
[12] = target: Melanocortin receptor 4 (Homo sapiens) (UniProt P32245); assay: MC4 (h) CEREP screen; settings: Compound concentration 10.0 uM
Melanocortin receptor 4 (Homo sapiens), sequence (P32245 whole entry): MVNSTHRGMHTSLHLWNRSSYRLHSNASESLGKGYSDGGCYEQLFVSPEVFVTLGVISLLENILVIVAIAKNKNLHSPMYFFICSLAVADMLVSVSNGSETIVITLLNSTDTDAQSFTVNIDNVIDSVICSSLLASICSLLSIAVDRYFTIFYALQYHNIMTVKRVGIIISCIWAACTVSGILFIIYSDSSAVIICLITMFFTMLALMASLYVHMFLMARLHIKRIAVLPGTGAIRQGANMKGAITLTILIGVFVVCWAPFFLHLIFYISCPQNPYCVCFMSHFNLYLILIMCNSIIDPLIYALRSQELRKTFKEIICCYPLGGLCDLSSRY

[13] = target: T3, Muscarinic acetylcholine receptor M1 (Homo sapiens) (UniProt P11229); assay: M1 (h) CEREP screen
T3 sequence (whole entry): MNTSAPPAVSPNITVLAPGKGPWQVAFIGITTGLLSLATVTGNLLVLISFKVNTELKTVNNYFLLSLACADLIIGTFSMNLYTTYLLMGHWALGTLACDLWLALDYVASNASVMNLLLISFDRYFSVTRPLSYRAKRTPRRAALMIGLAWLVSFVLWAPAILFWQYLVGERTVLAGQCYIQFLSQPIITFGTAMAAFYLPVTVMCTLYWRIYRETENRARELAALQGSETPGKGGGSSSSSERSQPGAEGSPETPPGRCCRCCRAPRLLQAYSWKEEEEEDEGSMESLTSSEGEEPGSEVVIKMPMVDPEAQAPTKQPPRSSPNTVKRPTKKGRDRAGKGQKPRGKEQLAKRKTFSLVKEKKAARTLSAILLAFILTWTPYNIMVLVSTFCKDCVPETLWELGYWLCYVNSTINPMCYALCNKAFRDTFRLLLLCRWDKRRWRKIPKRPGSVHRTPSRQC

[14] = target: Kappa-type opioid receptor (Homo sapiens) (UniProt P41145); assay: Kappa (KOP) (h) CEREP screen; settings: Compound concentration 10.0 uM
Kappa-type opioid receptor (Homo sapiens), sequence (P41145 whole entry): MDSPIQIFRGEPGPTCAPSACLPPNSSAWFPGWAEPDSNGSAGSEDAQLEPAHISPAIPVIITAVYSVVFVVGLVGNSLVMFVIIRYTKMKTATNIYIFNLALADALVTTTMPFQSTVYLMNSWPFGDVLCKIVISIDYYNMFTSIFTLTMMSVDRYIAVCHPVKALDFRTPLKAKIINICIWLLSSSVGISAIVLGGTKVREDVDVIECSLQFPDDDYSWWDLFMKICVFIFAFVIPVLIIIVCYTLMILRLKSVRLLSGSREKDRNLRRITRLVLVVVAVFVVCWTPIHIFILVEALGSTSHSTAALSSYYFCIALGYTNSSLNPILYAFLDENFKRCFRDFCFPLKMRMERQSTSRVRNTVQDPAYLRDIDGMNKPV

[15] = target: Estrogen receptor beta (Homo sapiens) (UniProt Q92731); assay: ERbeta Indigo Bioscience nuclear receptor screen
Estrogen receptor beta (Homo sapiens), sequence (Q92731 whole entry): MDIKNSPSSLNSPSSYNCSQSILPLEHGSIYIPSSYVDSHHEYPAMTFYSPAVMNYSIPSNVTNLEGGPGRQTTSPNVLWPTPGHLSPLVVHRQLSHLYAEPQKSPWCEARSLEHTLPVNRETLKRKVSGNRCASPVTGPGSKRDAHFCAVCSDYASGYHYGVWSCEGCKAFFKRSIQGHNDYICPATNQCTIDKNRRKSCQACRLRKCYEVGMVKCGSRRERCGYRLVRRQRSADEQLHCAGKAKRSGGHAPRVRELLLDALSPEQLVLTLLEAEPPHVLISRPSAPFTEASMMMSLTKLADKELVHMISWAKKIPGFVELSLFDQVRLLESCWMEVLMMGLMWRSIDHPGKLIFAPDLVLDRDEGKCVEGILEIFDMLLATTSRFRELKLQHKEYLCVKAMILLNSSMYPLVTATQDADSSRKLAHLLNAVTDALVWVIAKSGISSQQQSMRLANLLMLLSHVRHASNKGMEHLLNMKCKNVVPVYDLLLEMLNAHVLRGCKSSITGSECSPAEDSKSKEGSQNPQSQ

[16] = target: 5-hydroxytryptamine receptor 2A (Homo sapiens) (UniProt P28223); settings: Compound concentration 10.0 uM
5-hydroxytryptamine receptor 2A (Homo sapiens), sequence (P28223 whole entry): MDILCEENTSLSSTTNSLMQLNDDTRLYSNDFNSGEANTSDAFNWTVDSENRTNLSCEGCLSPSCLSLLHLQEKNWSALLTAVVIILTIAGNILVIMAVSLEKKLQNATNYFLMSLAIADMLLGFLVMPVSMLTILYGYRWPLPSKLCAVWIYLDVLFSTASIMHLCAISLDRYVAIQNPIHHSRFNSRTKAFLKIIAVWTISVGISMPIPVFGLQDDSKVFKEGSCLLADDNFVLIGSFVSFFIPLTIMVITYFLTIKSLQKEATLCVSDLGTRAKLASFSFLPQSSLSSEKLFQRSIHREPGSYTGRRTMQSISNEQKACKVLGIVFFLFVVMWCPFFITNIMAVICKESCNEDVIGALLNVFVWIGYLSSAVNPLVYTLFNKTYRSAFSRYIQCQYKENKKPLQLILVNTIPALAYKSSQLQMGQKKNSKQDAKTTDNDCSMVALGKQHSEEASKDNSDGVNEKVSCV

[17] = target: D(3) dopamine receptor (Homo sapiens) (UniProt P35462); settings: Compound concentration 10.0 uM
D(3) dopamine receptor (Homo sapiens), sequence (P35462 whole entry): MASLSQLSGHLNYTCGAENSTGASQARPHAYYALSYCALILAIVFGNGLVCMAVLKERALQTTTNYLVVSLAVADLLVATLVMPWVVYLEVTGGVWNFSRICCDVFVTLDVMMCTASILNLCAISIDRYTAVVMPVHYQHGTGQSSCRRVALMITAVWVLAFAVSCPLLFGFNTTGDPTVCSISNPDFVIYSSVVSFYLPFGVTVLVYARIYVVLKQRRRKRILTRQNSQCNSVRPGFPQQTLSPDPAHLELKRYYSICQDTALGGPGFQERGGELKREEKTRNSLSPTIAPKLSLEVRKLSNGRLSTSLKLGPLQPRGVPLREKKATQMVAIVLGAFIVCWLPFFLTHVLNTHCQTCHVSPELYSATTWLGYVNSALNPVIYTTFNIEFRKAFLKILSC

[18] = target: D(4) dopamine receptor (Homo sapiens) (UniProt P21917); settings: Compound concentration 10.0 uM
[19] = target: Sodium-dependent serotonin transporter (Homo sapiens) (UniProt P31645); settings: Compound concentration 10.0 uM
[20] = target: Alpha-2C adrenergic receptor (Homo sapiens) (UniProt P18825); settings: Compound concentration 10.0 uM
Alpha-2C adrenergic receptor (Homo sapiens), sequence (P18825 whole entry): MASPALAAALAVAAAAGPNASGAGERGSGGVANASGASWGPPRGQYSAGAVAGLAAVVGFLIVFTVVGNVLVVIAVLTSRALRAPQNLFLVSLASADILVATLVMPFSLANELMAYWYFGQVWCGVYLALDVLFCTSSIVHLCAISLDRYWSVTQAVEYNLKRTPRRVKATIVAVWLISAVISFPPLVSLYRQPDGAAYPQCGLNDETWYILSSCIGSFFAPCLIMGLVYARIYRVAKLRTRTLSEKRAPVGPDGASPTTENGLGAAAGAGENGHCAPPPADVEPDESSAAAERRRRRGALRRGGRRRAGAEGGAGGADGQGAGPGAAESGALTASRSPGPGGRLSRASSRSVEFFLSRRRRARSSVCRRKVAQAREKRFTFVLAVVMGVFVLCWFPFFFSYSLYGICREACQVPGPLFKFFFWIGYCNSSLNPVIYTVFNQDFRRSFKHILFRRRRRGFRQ

[21] = target: Beta-2 adrenergic receptor (Homo sapiens) (UniProt P07550); settings: Compound concentration 10.0 uM
[22] = target: Beta-3 adrenergic receptor (Homo sapiens) (UniProt P13945); settings: Compound concentration 10.0 uM
Beta-3 adrenergic receptor (Homo sapiens), sequence (P13945 whole entry, looked up): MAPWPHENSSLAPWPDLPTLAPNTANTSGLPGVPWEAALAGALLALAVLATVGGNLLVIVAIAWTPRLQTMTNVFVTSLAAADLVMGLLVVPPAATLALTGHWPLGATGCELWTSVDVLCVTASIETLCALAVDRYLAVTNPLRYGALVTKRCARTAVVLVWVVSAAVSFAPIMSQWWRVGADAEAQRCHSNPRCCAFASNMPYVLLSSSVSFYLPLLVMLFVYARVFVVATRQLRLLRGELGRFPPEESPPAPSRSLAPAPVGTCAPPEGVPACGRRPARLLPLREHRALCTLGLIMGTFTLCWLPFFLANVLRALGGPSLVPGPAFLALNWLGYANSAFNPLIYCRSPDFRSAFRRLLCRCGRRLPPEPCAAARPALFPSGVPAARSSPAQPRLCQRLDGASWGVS

[23] = species on record: Rattus norvegicus; settings: Compound concentration 10.0 uM
[24] = target: Nuclear receptor ROR-gamma (Homo sapiens) (UniProt P51449)

inhibition [1]: 21%
inhibition [2]: 6%
inhibition [3]: 6%
inhibition [4]: 3%
inhibition [5]: 13%
inhibition [6]: 3%
inhibition at 3 µM [7]: 31.2% (not active)
inhibition [8]: 13%
IC50 [9]: ~6 µM
inhibition [10]: 12%
inhibition [11]: 10%
inhibition [12]: 14%
inhibition ([13]; Compound concentration 1.0 uM): 12%
inhibition ([13]; Compound concentration 10.0 uM): 21%
inhibition [14]: 12%
inhibition ([15]; Compound concentration 0.3 uM): 1.77%
inhibition ([15]; Compound concentration 1.0 uM): 7.87%
inhibition ([15]; Compound concentration 3.0 uM): 14.8%
inhibition [16]: 6.87%
inhibition [17]: -2.36%
inhibition [18]: -5.45%
inhibition [19]: 5.62%
inhibition [20]: 39.8%
inhibition [21]: 15.6%
inhibition [22]: 39.4%
inhibition [23]: 35.6%
qKD [24]: 5.3 nM
Compound: COc1nc2ccc([C@@](O)(c3ccccc3)C3CCN(C(C)=O)CC3)cc2c(Cl)c1Cc1ccc(-n2cccn2)cc1 [JNJ-54119936]
